According to patent US20080119515A1, “Heterocyclic Kinase Inhibitors: Methods of Use and Synthesis” (priority 2003, published 2008):

What follows are compounds tested against T1, ZAP-70 (Homo sapiens, UniProt P43403) (assay: DELFIA assay (ZAP-70 kinase, phosphorylation of biotinylated poly(glu,tyr))). Settings: ZAP-70 DELFIA, class symbols; read-out: Activity (IC50 in vitro).
T1 sequence (P43403 1-619): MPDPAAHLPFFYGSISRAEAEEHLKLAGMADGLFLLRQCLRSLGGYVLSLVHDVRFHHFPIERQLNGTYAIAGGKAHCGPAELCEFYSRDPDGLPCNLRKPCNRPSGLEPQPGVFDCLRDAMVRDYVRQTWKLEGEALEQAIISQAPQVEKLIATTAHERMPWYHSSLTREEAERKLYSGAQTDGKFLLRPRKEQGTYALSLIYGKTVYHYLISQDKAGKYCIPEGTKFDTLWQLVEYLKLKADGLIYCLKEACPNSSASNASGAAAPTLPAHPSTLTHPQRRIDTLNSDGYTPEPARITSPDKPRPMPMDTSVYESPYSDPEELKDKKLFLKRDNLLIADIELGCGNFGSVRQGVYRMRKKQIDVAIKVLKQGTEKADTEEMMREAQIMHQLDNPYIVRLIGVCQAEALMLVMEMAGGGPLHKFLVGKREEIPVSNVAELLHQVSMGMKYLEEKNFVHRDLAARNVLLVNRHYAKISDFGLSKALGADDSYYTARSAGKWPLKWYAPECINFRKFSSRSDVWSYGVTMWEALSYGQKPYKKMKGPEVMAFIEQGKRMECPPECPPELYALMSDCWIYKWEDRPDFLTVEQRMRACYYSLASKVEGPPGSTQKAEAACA
Format: biochemical
How it was run: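 3.1 nM ZAP-70 pre-incubated 10 min at room temperature with compound ([…]) and 62.5 nM biotinylated poly(glu,tyr) in 62.5 mM Mops pH 7.0, 12.5 mM MgCl2, 12.5% glycerol, 6.25% DMSO (pre-incubation concentrations); ATP added from 5 mM stock, 30 min reaction, EDTA stop. Phosphorylation read by DELFIA europium anti-phosphotyrosine fluorescence (340/615).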
For `N#Cc1ccc(-c2ccc3nc(N(CCO)Cc4ccccc4)cc(C(=O)N4CCC[C@H]4CN4CCCC4)c3c2)cc1` [Compound 212], the IC50 was greater than 10 µM. `O=C(c1cc(Cl)nc(/C=C/c2ccccc2)c1)N1CCC[C@H]1CN1CCCC1` [Compound 115] showed an IC50 greater than 10 µM. Compound `N#Cc1ccc(-c2ccc3nc(NCc4ccc(F)c(F)c4)cc(C(=O)N4CCC[C@H]4CN4CCCC4)c3c2)cc1` [Compound 162] has an IC50 greater than 10 µM. Compound `N#Cc1ccc(-c2ccc3nc(NCCc4ccccc4Cl)cc(C(=O)N4CCC[C@H]4CN4CCCC4)c3c2)cc1` [Compound 156] has an IC50 greater than 10 µM. For `CCCCCCc1cc(C(=O)N2CCC[C@H]2CN2CCCC2)cc(N(C)Cc2ccccc2)n1` [Compound 277], the IC50 was greater than 10 µM. Work on `N#Cc1ccc(-c2ccc3nc(NCCc4cccc(F)c4)cc(C(=O)N4CCC[C@H]4CN4CCCC4)c3c2)cc1` [Compound 194] yielded an IC50 greater than 10 µM. Compound `CN(CCc1ccccc1)c1cc(C(=O)N2CCC[C@H]2CN2CCCC2)cc(-c2ccc3c(c2)OCO3)n1` [Compound 368] has an IC50 greater than 10 µM. For `O=C(c1cc(N[C@@H]2c3ccccc3C[C@@H]2O)nc2ccc(-c3ccc4c(c3)OCO4)cc12)N1CCC[C@H]1CN1CCCC1` [Compound 48], the IC50 was 1 to 10 µM. For `CC(Nc1cc(C(=O)N2CCC[C@H]2CN2CCCC2)c2cc(-c3ccc(C#N)cc3)ccc2n1)c1ccc(F)cc1` (stereo partly shown) [Compound 223], the IC50 was greater than 10 µM. With `CS(=O)(=O)c1ccc(CNc2cc(C(=O)N3CCC[C@H]3CN3CCCC3)c3cc(-c4ccc(C#N)cc4)ccc3n2)cc1` [Compound 311] the IC50 was 1 to 10 µM. `Cc1ccc(CCc2cc(C(=O)N3CCC[C@H]3CN3CCCC3)c3cc(-c4ccc5c(c4)OCO5)ccc3n2)cc1` [Compound 392] showed an IC50 of less than 1 µM. For `N#Cc1ccc(-c2ccc3nc(NNCc4ccccc4)cc(C(=O)N4CCC[C@H]4CN4CCCC4)c3c2)cc1` [Compound 249], the IC50 was greater than 10 µM. In the case of `O=C(c1cc(NCc2ccc(C(F)(F)F)cc2)nc2ccc(-c3ccccn3)cc12)N1CCC[C@H]1CN1CCCC1` [Compound 333], the IC50 is reported as greater than 10 µM. Compound `CS(=O)(=O)c1ccc(-c2ccc3c(C(=O)N4CCC[C@H]4CN4CCCC4)cc(NCc4ccc(C(F)(F)F)cc4)nc3c2)cc1` [Compound 123] has an IC50 of 1 to 10 µM. `N#Cc1ccc(-c2ccc3nc(NCc4cccs4)cc(C(=O)N4CCC[C@H]4CN4CCCC4)c3c2)cc1` [Compound 270] gave an IC50 greater than 10 µM. Compound `COc1cccc(CNc2cc(C(=O)N3CCC[C@H]3CN3CCCC3)c3cc(-c4ccc(C#N)cc4)ccc3n2)c1` [Compound 160] has an IC50 greater than 10 µM. `Fc1ccc(CCc2cc(Nc3ccc(N4CCNCC4)cc3)c3cc(-c4ccc5c(c4)OCO5)ccc3n2)cc1` [Compound 414] showed an IC50 greater than 10 µM. In the case of `N#Cc1ccc(-c2ccc3nc(N4CCc5[nH]c6c(F)cccc6c5C4)cc(C(=O)N4CCC[C@H]4CN4CCCC4)c3c2)cc1` [Compound 215], the IC50 is reported as greater than 10 µM. `O=C(c1cc(/C=C/c2ccc(F)cc2)nc2ccc(-c3ccc4c(c3)OCO4)cc12)N1CCC[C@H]1CN1CCCC1` [Compound 131] gave an IC50 of 1 to 10 µM. `CN(Cc1ccccc1)c1cc(C(=O)N2CCC[C@H]2CN2CCCC2)c2cc(Oc3ccccc3)ccc2n1` [Compound 129] was tested, and the IC50 was 1 to 10 µM. `CC(CNc1cc(C(=O)N2CCC[C@H]2CN2CCCC2)c2cc(-c3ccc4c(c3)OCO4)ccc2n1)c1ccccc1` (stereo partly shown) [Compound 54] gave an IC50 of less than 1 µM. `O=C(c1cc(NCc2ccc(C(F)(F)F)cc2)nc2cc(-c3cc(F)cc(F)c3)ccc12)N1CCC[C@H]1CN1CCCC1` [Compound 121] showed an IC50 of 1 to 10 µM. In the case of `O=C(c1cc(NCCc2ccccc2)nc2ccc(-c3ccc4c(c3)OCO4)cc12)N1CCC[C@H]1CN1CCCC1` [Compound 37], the IC50 is reported as less than 1 µM. Work on `O=C(Nc1ccc2cn[nH]c2c1)c1cc(NCc2ccc(C(F)(F)F)cc2)nc2ccc(-c3ccc4c(c3)OCO4)cc12` [Compound 87] yielded an IC50 greater than 10 µM. `O=C(c1cc(NCc2ccccc2)nc2ccc(-c3ccc4c(c3)OCO4)cc12)N1CCC[C@H]1CO` [Compound 80] showed an IC50 greater than 10 µM. `N#Cc1ccc(-c2ccc3nc(N4CCCC4Cc4ccccc4)cc(C(=O)N4CCC[C@H]4CN4CCCC4)c3c2)cc1` (stereo partly shown) [Compound 253] gave an IC50 greater than 10 µM. Work on `O=C(Nc1ccc2[nH]ncc2c1)c1cc(NCc2ccccc2)nc2ccc(-c3ccc4c(c3)OCO4)cc12` [Compound 86] yielded an IC50 of 1 to 10 µM. `O=C(c1cc(N2CCCc3ccccc32)nc2ccc(-c3ccc4c(c3)OCO4)cc12)N1CCC[C@H]1CN1CCCC1` [Compound 92] showed an IC50 of less than 1 µM. In the case of `O=C(c1cc(NCc2ccccc2)nc2ccc(-c3ccc4c(c3)OCO4)cc12)N1CCC[C@H]1CN1CCCC1` [Compound 4], the IC50 is reported as less than 1 µM. `N#Cc1ccc(-c2ccc3nc(NCc4ccccc4)cc(C(=O)N4CCC[C@H]4CN4CCCC4)c3c2)cc1` [Compound 154] showed an IC50 greater than 10 µM. `N#Cc1ccc(-c2ccc3nc(N4CCC[C@@H]4c4ccccc4Cl)cc(C(=O)N4CCC[C@H]4CN4CCCC4)c3c2)cc1` [Compound 258] was tested, and the IC50 was greater than 10 µM. `O=C(c1cc(NCc2ccc(C(F)(F)F)cc2)nc2ccc(-c3ccc4ncsc4c3)cc12)N1CCC[C@H]1CN1CCCC1` [Compound 352] gave an IC50 of less than 1 µM. `N#Cc1ccc(-c2ccc3nc(NCc4cccc(Br)c4)cc(C(=O)N4CCC[C@H]4CN4CCCC4)c3c2)cc1` [Compound 165] was tested, and the IC50 was greater than 10 µM. For `CC1CN(c2ccc(Cc3cc(C(=O)N4CCCC4CN4CCCC4)c4cc(-c5ccc6c(c5)OCO6)ccc4n3)cc2)CCN1` (stereo not shown) [Compound 438], the IC50 was less than 1 µM. `N#Cc1cccc(-c2ccc3c(C(=O)N4CCC[C@H]4CN4CCCC4)cc(NCc4ccc(C(F)(F)F)cc4)nc3c2)c1` [Compound 119] showed an IC50 greater than 10 µM. Compound `O=C(c1cc(NCc2ccc(C(F)(F)F)cc2)nc2ccc(-c3ccc4c(c3)OCO4)cc12)N1CCC[C@H]1CNC1CC1` [Compound 361] has an IC50 of 1 to 10 µM. With `O=C(c1cc(NCc2ccc(C(F)(F)F)cc2)nc2ccc(-c3ccc4cc[nH]c4c3)cc12)N1CCC[C@H]1CN1CCCC1` [Compound 127] the IC50 was less than 1 µM. In the case of `N#Cc1ccc(-c2ccc3nc(N4CCCC(c5cccc(C(F)(F)F)c5)C4)cc(C(=O)N4CCC[C@H]4CN4CCCC4)c3c2)cc1` (stereo partly shown) [Compound 269], the IC50 is reported as greater than 10 µM. `Fc1ccc(/C=C/c2cc(Nc3ccc(N4CCNCC4)cc3)c3cc(-c4ccc5c(c4)OCO5)ccc3n2)cc1` [Compound 413] was tested, and the IC50 was 1 to 10 µM. With `O=C(c1cc(NCc2ccc(C(F)(F)F)cc2)nc2c(-c3ccc4c(c3)OCO4)cc(Cl)cc12)N1CCC[C@H]1CN1CCCC1` [Compound 383] the IC50 was greater than 10 µM. With `N#Cc1ccc(-c2ccc3nc(NCc4ccc(Cl)cc4)cc(C(=O)N4CCC[C@H]4CN4CCCC4)c3c2)cc1` [Compound 168] the IC50 was greater than 10 µM. Compound `CN(C)[C@@H]1CCN(c2cc(C(=O)N3CCC[C@H]3CN3CCCC3)c3cc(-c4ccc5c(c4)OCO5)ccc3n2)C1` [Compound 75] has an IC50 of 1 to 10 µM. For `O=C(c1cc(CCCCc2ccc(Cl)cc2)nc2ccc(-c3ccc4c(c3)OCO4)cc12)N1CCC[C@H]1CN1CCCC1` [Compound 407], the IC50 was less than 1 µM. `O=C(c1cc(NCc2ccc(C(F)(F)F)cc2)nc2ccc(-c3ccc4c(c3)OCO4)cc12)N1CC2CC2[C@H]1CN1CCCC1` (stereo partly shown) [Compound 145] was tested, and the IC50 was 1 to 10 µM. In the case of `COC[C@H]1CCCN1c1cc(C(=O)N2CCC[C@H]2CN2CCCC2)c2cc(-c3ccc4c(c3)OCO4)ccc2n1` [Compound 328], the IC50 is reported as 1 to 10 µM. `O=C(c1cc(NCc2cccnc2)nc2ccc(-c3ccc4c(c3)OCO4)cc12)N1CCC[C@H]1CN1CCCC1` [Compound 34] showed an IC50 of 1 to 10 µM. Work on `N#Cc1ccc(-c2ccc3nc(NCc4ccccc4Cl)cc(C(=O)N4CCC[C@H]4CN4CCCC4)c3c2)cc1` [Compound 169] yielded an IC50 greater than 10 µM. In the case of `O=C(c1cc(CCc2cccc(F)c2)nc2ccc(-c3ccc4c(c3)OCO4)cc12)N1CCC[C@H]1CN1CCCC1` [Compound 396], the IC50 is reported as less than 1 µM. Work on `N#Cc1ccc(-c2ccc3nc(NCc4cccc(C(F)(F)F)c4F)cc(C(=O)N4CCC[C@H]4CN4CCCC4)c3c2)cc1` [Compound 237] yielded an IC50 greater than 10 µM. Work on `CN(C)CCN(C)c1cc(C(=O)N2CCC[C@H]2CN2CCCC2)c2cc(-c3ccc4c(c3)OCO4)ccc2n1` [Compound 67] yielded an IC50 greater than 10 µM. For `N#Cc1ccc(-c2ccc3nc(N4CCCC4c4ccc(Cl)cc4)cc(C(=O)N4CCC[C@H]4CN4CCCC4)c3c2)cc1` (stereo partly shown) [Compound 259], the IC50 was greater than 10 µM. For `CCC(Nc1cc(C(=O)N2CCC[C@H]2CN2CCCC2)c2cc(-c3ccc4c(c3)OCO4)ccc2n1)c1ccccc1` (stereo partly shown) [Compound 43], the IC50 was less than 1 µM. In the case of `N#Cc1ccc(-c2ccc3nc(NCc4c(F)cccc4F)cc(C(=O)N4CCC[C@H]4CN4CCCC4)c3c2)cc1` [Compound 312], the IC50 is reported as 1 to 10 µM. Work on `O=C(c1cc(N2CCc3ccccc3C2)nc2ccc(-c3ccc4c(c3)OCO4)cc12)N1CCC[C@H]1CN1CCCC1` [Compound 65] yielded an IC50 of less than 1 µM. `N#Cc1ccc(-c2ccc3nc(NCCc4ccc(Cl)cc4Cl)cc(C(=O)N4CCC[C@H]4CN4CCCC4)c3c2)cc1` [Compound 193] was tested, and the IC50 was greater than 10 µM. With `Cc1ccsc1CNc1cc(C(=O)N2CCC[C@H]2CN2CCCC2)c2cc(-c3ccc(C#N)cc3)ccc2n1` [Compound 271] the IC50 was greater than 10 µM. With `CN(CCc1ccccc1)c1cc(C(=O)N2CCC[C@H]2CN2CCCC2)cc(-c2ccccc2)n1` [Compound 367] the IC50 was greater than 10 µM. For `O=C(Nc1ccc2[nH]ncc2c1)c1cc(NCc2ccc(C(F)(F)F)cc2)nc2ccc(-c3ccc4c(c3)OCO4)cc12` [Compound 88], the IC50 was greater than 10 µM.
